Where two headings read alike, the source gives them in different places.
What was measured:
[1] = system: SARS-CoV-2; assay: microbe, parasite or virus in culture; assay type: cell-based; settings: Severe acute respiratory syndrome coronavirus 2, VeroE6/TMPRSS2, 72 h, 50% SARS-CoV-2 infected cell death inhibitory concentration, VeroE6/TMPRSS2 cells, 3 days culture
[2] = molecular target: SARS-CoV-2 3CL protease (Severe acute respiratory syndrome coronavirus 2, UniProt P0DTD1); assay: biochemical; settings: 50% SARS-CoV-2 3CL protease inhibitory concentration, read-out: IC50

| Structure (SMILES) | EC50 ([1]; class symbols) | IC50 ([2]; given as class symbols) | EC50 ([1]; CellTiter-Glo 2.0) | IC50 ([2]; RapidFire MS) |
| --- | --- | --- | --- | --- |
| Cc1nc2cc(Cn3c(=O)nc(Nc4ccc5c(c4)CCO5)n(Cc4cc(F)c(F)c(F)c4)c3=O)c(=O)[nH]c2s1 [II-0341] | 1000 to 10000 nM | < 100 nM | – | – |
| CCNc1nc2cc(Cl)c(Nc3nc(=O)n(Cc4ccc[nH]c4=O)c(=O)n3Cc3cc(F)c(F)c(F)c3)cc2s1 [Compound I-0468] | 1000 to 10000 nM | < 100 nM | – | – |
| Cc1cncc(-n2c(=O)nc(Nc3cc4c(C)n(C)nc4cc3Cl)n(Cc3cc(F)c(F)c(F)c3)c2=O)c1 [II-0449] | < 1000 nM | < 100 nM | – | – |
| O=c1[nH]cccc1Cn1c(=O)nc(N2CC3(CCC3)C2)n(Cc2cc(F)c(F)c(F)c2)c1=O [II-0226] | – | – | 2770 nM | 130 nM |
| O=c1nc(Nc2cc3cn(CCO)nc3cc2Cl)n(Cc2cc(F)c(F)cc2F)c(=O)n1Cc1ccccn1 [II-0249] | 1000 to 10000 nM | < 100 nM | – | – |
| Cc1cncc(-n2c(=O)nc(Nc3cc4cn(C)nc4cc3F)n(Cc3ccc(F)c(C#N)c3)c2=O)c1 [Compound I-0384] | < 1000 nM | < 100 nM | – | – |
| Cc1cncc(-n2c(=O)nc(Nc3c(Cl)cc4nn(C)cc4c3F)n(Cc3ccc(F)c(C#N)c3)c2=O)c1 [II-0458] | < 1000 nM | < 100 nM | – | – |
| CCc1cc(OC)ccc1Nc1nc(=O)n(Cc2ccc[nH]c2=O)c(=O)n1Cc1cc(F)c(F)c(F)c1 [Compound I-0165] | 1000 to 10000 nM | < 100 nM | – | – |
| N#Cc1cc(Cn2c(Nc3ccc4nn(CC(F)F)cc4c3)nc(=O)n(-c3cncc(Cl)c3)c2=O)ccc1F [II-0415] | – | – | 870 nM | 15 nM |
| Cc1cncc(-n2c(=O)nc(Nc3cc4cn(C)nc4cc3Br)n(Cc3ccc(F)c(C#N)c3)c2=O)c1 [II-0167] | < 1000 nM | < 100 nM | – | – |
| O=c1[nH]cccc1Cn1c(=O)nc(Nc2cc3cn(CCCO)nc3cc2Cl)n(Cc2cc(F)c(F)c(F)c2)c1=O [Compound I-0450] | 1000 to 10000 nM | < 100 nM | – | – |
| N#Cc1cc(Cn2c(Nc3cc4cn(CCO)nc4cc3Cl)nc(=O)n(-c3cccc4ccccc34)c2=O)ccc1F [Compound I-0435] | 1000 to 10000 nM | < 100 nM | – | – |
| Cc1cncc(-n2c(=O)nc(Nc3cc4cn(C(C)C)nc4cc3Cl)n(Cc3ccc(F)c(C#N)c3)c2=O)c1 [II-0544] | < 1000 nM | < 100 nM | – | – |
| Cc1cncc(-n2c(=O)nc(Nc3cc4sc(C)nc4cc3F)n(Cc3ccc(F)c(C#N)c3)c2=O)c1 [II-0416] | 1000 to 10000 nM | < 100 nM | – | – |
| CC(=O)Nc1nc2ccc(Nc3nc(=O)n(-c4cncc(C)c4)c(=O)n3Cc3ccc(F)c(C#N)c3)cc2s1 [II-0316] | 1000 to 10000 nM | < 100 nM | – | – |
| Cn1cc2cc(Nc3nc(=O)n(-c4cncc(Cl)c4)c(=O)n3Cc3cc(F)c(F)c(F)c3)ccc2n1 [II-0609] | – | – | 2040 nM | 120 nM |
| Cn1cnc(Cn2c(=O)nc(Nc3cc4cn(C)nc4cc3Cl)n(Cc3cccc(F)c3F)c2=O)n1 [II-0217] | 1000 to 10000 nM | < 100 nM | – | – |
| Cn1cc2cc(Nc3nc(=O)n(-c4cnc5ccccn45)c(=O)n3Cc3cc(F)c(F)c(F)c3)c(Cl)cc2n1 [II-0391] | 1000 to 10000 nM | < 100 nM | – | – |
| CC(=O)Nc1nc2cc(Cl)c(Nc3nc(=O)n(Cc4ccc[nH]c4=O)c(=O)n3Cc3cc(F)c(F)c(F)c3)cc2s1 [Compound I-0465] | 1000 to 10000 nM | < 100 nM | 3270 nM | 4.2 nM |

| Structure (SMILES) | EC50 ([1]; class symbols) | IC50 ([2]; given as class symbols) | EC50 ([1]; CellTiter-Glo 2.0) | IC50 ([2]; RapidFire MS) |
| --- | --- | --- | --- | --- |
| Cn1cc2cc(Nc3nc(=O)n(-c4cncc(C#N)c4)c(=O)n3Cc3ccc(F)c(C#N)c3)c(Cl)cc2n1 [II-0486] | 1000 to 10000 nM | < 100 nM | – | – |
| Cc1cncc(-n2c(=O)nc(Nc3cc4cn(C)nc4cc3Cl)n(Cc3cc(Cl)cc(Br)c3)c2=O)c1 [II-0215] | 1000 to 10000 nM | < 100 nM | – | – |
| Cn1cnc(Cn2c(=O)nc(Nc3cc4c(cc3Cl)nc3n4CCN3)n(Cc3cc(Cl)c(F)cc3F)c2=O)n1 [II-0522] | – | – | 15000 nM | 4.1 nM |
| O=c1[nH]cccc1Cn1c(=O)nc(Nc2ccc3c(c2)CCCO3)n(Cc2cc(F)c(F)c(F)c2)c1=O [Compound I-0019] | 1000 to 10000 nM | < 100 nM | – | – |
| Cc1cncc(-n2c(=O)nc(Nc3cc4cn(C[C@H](C)O)nc4cc3Cl)n(Cc3cc(F)c(F)c(F)c3)c2=O)c1 [II-0101] | < 1000 nM | < 100 nM | – | – |
| Cn1cc2cc(Nc3nc(=O)n(Cc4ccccn4)c(=O)n3Cc3cc(F)c(F)cc3F)c(Cl)cc2n1 [II-0251] | < 1000 nM | < 100 nM | – | – |
| Cn1cnc(Cn2c(=O)nc(Nc3cc4cn(CC(F)F)nc4cc3F)n(Cc3cc(F)c(F)c(Cl)c3)c2=O)n1 [II-0466] | 1000 to 10000 nM | < 100 nM | – | – |
| Cc1cncc(-n2c(=O)nc(Nc3cc4cn(C)nc4cc3Cl)n(Cc3cc(F)cc(F)c3)c2=O)c1 [II-0201] | < 1000 nM | < 100 nM | – | – |
| O=c1[nH]cc(Cl)cc1Cn1c(=O)nc(Nc2cc3cn(CCCO)nc3cc2Cl)n(Cc2cc(F)c(F)c(F)c2)c1=O [Compound I-0454] | 1000 to 10000 nM | < 100 nM | – | – |
| COc1ccc(Nc2nc(=O)n(-c3cncc(C)c3)c(=O)n2Cc2ccc(F)c(C#N)c2)c(Br)c1 [II-0174] | < 1000 nM | < 100 nM | – | – |
| Cc1cc2nn(C)cc2cc1Nc1nc(=O)n(-c2cccc3cnccc23)c(=O)n1Cc1cc(F)c(F)c(F)c1 [Compound I-0369] | 1000 to 10000 nM | < 100 nM | – | – |
| Cc1cncc(-n2c(=O)nc(Nc3cc4cn(C)nc4cc3Cl)n(Cc3cc(Cl)ccc3C)c2=O)c1 [II-0332] | – | – | 54 nM | 2 nM |
| Cn1cc2cc(Nc3nc(=O)n(-c4cncc(Cl)c4)c(=O)n3Cc3ccc(F)c(C#N)c3)c(Cl)cc2n1 [II-0120] | – | – | 127 nM | 9 nM |
| Cc1nc2cc(Cl)c(Nc3nc(=O)n(Cc4ccc[nH]c4=O)c(=O)n3Cc3cc(F)c(F)c(F)c3)cc2o1 [Compound I-0459] | 1000 to 10000 nM | < 100 nM | – | – |
| CCn1cc2cc(Nc3nc(=O)n(-c4cncc(Cl)c4)c(=O)n3Cc3cc(C#N)c(F)cc3C)ccc2n1 [II-0559] | – | – | 246 nM | 6.4 nM |
| Cc1cncc(-n2c(=O)nc(Nc3cc4cn(C)nc4cc3Cl)n(Cc3cc(F)c(F)c(C#N)c3)c2=O)c1 [II-0130] | – | – | 95 nM | 1.9 nM |
| Cn1cnc(Cn2c(=O)nc(Nc3cc4cn(C)nc4cc3Cl)n(Cc3ccc(F)c(Br)c3)c2=O)n1 [II-0179] | 1000 to 10000 nM | < 100 nM | – | – |
| CNc1nc2cc(Cl)c(Nc3nc(=O)n(-c4cncc(C)c4)c(=O)n3Cc3cc(F)c(F)cc3F)cc2s1 [II-0236] | < 1000 nM | < 100 nM | – | – |
| COc1ccc(Nc2nc(=O)n(-c3cncc(C)c3)c(=O)n2Cc2ccc(F)c(C#N)c2)c(F)c1 [II-0180] | < 1000 nM | < 100 nM | – | – |

| Structure (SMILES) | EC50 ([1]; class symbols) | IC50 ([2]; given as class symbols) | EC50 ([1]; CellTiter-Glo 2.0) | IC50 ([2]; RapidFire MS) |
| --- | --- | --- | --- | --- |
| COCCn1cc2cc(Nc3nc(=O)n(Cc4ccc[nH]c4=O)c(=O)n3Cc3cc(F)c(F)c(F)c3)c(Cl)cc2n1 [Compound I-0285] | 1000 to 10000 nM | < 100 nM | – | – |
| COc1ccc(Nc2nc(=O)n(Cc3ccc[nH]c3=O)c(=O)n2Cc2cc(F)c(F)c(F)c2)cc1 [Compound I-0020] | 1000 to 10000 nM | < 100 nM | – | – |
| COC(=O)Nc1nc2cc(Cl)c(Nc3nc(=O)n(Cc4ncn(C)n4)c(=O)n3Cc3cc(Cl)c(F)cn3)cc2s1 [II-0080] | 1000 to 10000 nM | < 100 nM | – | – |
| Cn1cc2cc(Nc3nc(=O)n(-c4cncc(C5CC5)c4)c(=O)n3Cc3ccc(F)c(C#N)c3)ccc2n1 [II-0388] | < 1000 nM | < 100 nM | – | – |
| Cn1cc2cc(Nc3nc(=O)n(-c4cncc(Cl)c4)c(=O)n3Cc3cc(C#N)c(F)cn3)c(Cl)cc2n1 [II-0538] | 1000 to 10000 nM | < 100 nM | – | – |
| CC(C)(Nc1nc(=O)n(Cc2ccc[nH]c2=O)c(=O)n1Cc1cc(F)c(F)c(F)c1)c1ccccc1F [II-0482] | – | – | 44500 nM | 410 nM |
| Cc1cncc(-n2c(=O)nc(Nc3ccc4c(c3)CCCO4)n(Cc3ccc(F)c(C#N)c3)c2=O)c1 [II-0166] | < 1000 nM | < 100 nM | – | – |
| COc1ccc(Nc2nc(=O)n(Cc3ccc[nH]c3=O)c(=O)n2Cc2cc(Cl)cc(Cl)c2)cc1 [Compound I-0213] | 1000 to 10000 nM | < 100 nM | – | – |
| Cn1nc2cc(Cl)c(Nc3nc(=O)n(Cc4cccnc4O)c(=O)n3Cc3cc(F)c(F)c(F)c3)cc2c1CCCO [Compound I-0364] | 1000 to 10000 nM | < 100 nM | – | – |
| CNc1nc2cc(Cl)c(Nc3nc(=O)n(Cc4ncccn4)c(=O)n3Cc3cc(Cl)c(F)cc3F)cc2s1 [II-0239] | 1000 to 10000 nM | < 100 nM | – | – |
| O=c1[nH]cccc1Cn1c(=O)nc(NC2CCS(=O)(=O)CC2)n(Cc2cc(F)c(F)c(F)c2)c1=O [Compound I-0038] | < 1000 nM | 1000 to 10000 nM | – | 1300 nM |
| Cc1nc2ccc(Nc3nc(=O)n(-c4cncc5ccccc45)c(=O)n3Cc3ccc(F)c(C#N)c3)cc2o1 [II-0176] | < 1000 nM | < 100 nM | – | – |
| Cn1cnc(Cn2c(=O)nc(Nc3cc4cn(C)nc4cc3Cl)n(Cc3cc(C#N)c(F)cc3Cl)c2=O)n1 [II-0088] | 1000 to 10000 nM | < 100 nM | – | – |
| Cc1cncc(-n2c(=O)nc(Nc3cc(-c4ccc[nH]c4=O)sc3C)n(Cc3cc(F)c(F)c(F)c3)c2=O)c1 [II-0289] | – | – | 16000 nM | 240 nM |
| Cn1cc2cc(Nc3nc(=O)n(-c4cncc5ccccc45)c(=O)n3Cc3cc(F)c(F)c(F)c3)ccc2n1 [Compound I-0380] | < 1000 nM | < 100 nM | – | – |
| COc1ccc(Nc2nc(=O)n(-c3cncc4ccccc34)c(=O)n2Cc2ccc(F)c(C#N)c2)c(C)c1 [II-0169] | < 1000 nM | < 100 nM | – | – |
| CCCc1cc(F)c(F)cc1Cn1c(Nc2cc3cn(C)nc3cc2Cl)nc(=O)n(-c2cncc(C)c2)c1=O [II-0069] | 1000 to 10000 nM | < 100 nM | – | – |
| O=c1[nH]cccc1Cn1c(=O)nc(Nc2cc3cn(CCCOC(F)(F)F)nc3cc2Cl)n(Cc2cc(F)c(F)c(F)c2)c1=O [Compound I-0400] | 1000 to 10000 nM | < 100 nM | – | – |
| Cc1cncc(-n2c(=O)nc(Nc3cc4cn(C)nc4cc3Cl)n(Cc3cc(C#N)c(F)cc3CF)c2=O)c1 [II-0581] | < 1000 nM | < 100 nM | – | – |
